Data from BindingDB's records for 0.1007/s00044-005-0126-y (University, Mississippi, 2005).

Columns and labels:
[1] = target: T1, Cysteine proteinase falcipain 2a (Plasmodium falciparum, UniProt Q9NBD4); experiment: In Vitro Inhibition Assay
T1 sequence (Q9NBD4 whole entry): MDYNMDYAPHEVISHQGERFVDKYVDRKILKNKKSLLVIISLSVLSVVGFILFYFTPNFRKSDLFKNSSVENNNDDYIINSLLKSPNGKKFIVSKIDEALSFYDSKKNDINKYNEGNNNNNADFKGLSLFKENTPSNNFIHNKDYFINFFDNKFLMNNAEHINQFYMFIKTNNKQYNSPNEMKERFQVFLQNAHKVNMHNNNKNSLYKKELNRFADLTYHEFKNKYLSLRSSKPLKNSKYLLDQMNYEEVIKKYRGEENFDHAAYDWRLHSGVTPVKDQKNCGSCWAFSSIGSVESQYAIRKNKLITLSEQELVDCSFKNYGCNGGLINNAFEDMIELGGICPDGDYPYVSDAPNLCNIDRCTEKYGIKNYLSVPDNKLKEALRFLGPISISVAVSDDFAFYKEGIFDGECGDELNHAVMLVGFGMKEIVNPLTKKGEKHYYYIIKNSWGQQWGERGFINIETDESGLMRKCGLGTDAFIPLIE
Experimental: (§1) In vitro antimalarial assay, antimalarial activity of the compounds was determined in vitro on chloroquine sensitive and resistant strains of plasmodium flaciparum as described earlier.

[2] = target: T2, Cysteine proteinase falcipain 3 (Plasmodium falciparum (isolate 3D7), UniProt Q8IIL0); experiment: In Vitro Inhibition Assay
T2 sequence (Q8IIL0 whole entry): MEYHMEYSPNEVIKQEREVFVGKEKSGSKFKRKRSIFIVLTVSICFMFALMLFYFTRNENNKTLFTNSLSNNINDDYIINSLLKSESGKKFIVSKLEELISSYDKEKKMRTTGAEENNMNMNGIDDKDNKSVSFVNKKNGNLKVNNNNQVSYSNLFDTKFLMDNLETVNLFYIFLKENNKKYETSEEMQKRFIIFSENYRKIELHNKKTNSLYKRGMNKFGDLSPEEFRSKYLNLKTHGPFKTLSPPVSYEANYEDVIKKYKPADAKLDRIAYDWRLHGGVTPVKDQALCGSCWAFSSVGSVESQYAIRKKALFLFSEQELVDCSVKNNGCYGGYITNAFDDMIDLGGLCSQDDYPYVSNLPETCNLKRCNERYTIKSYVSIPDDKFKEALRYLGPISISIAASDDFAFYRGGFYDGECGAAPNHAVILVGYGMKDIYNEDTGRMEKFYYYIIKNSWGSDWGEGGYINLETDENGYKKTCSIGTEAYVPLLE
Experimental: as §1

SMILES	IC50 [1]	IC50 [2]
NC(=O)CCc1sc(NC(=O)CSCCCc2ccccc2)nc1/C=C/c1ccccc1 [Trisubsituted thiazole, 23]	15.3 µM	
O=CCCc1sc(CCC(=O)CSCCCc2ccccc2)nc1CCc1ccccc1 [Trisubsituted thiazole, 16]	39.1 µM	> 50 µM
O=C(C=Cc1nc(CCc2ccccc2)c(CCCO)s1)CSCCCc1ccccc1 [Trisubsituted thiazole, 14]	6.6 µM	29.4 µM
CC(=O)OCc1nc(CCC(=O)CSCCCc2ccccc2)sc1CCc1ccccc1 [Trisubsituted thiazole, 30]	> 33 µM	> 50 µM
NC(=O)CCc1sc(CCC(=O)CSCCCc2ccccc2)nc1CCc1ccccc1 [Trisubsituted thiazole, 17]	> 33 µM	> 50 µM
O=C(CCc1nc(CO)c(CCc2ccccc2)s1)CSCCCc1ccccc1 [Trisubsituted thiazole, 29]	> 12.5 µM	> 50 µM
CC(=O)NCCCc1sc(CCC(=O)CSCCCc2ccccc2)nc1CCc1ccccc1 [Trisubsituted thiazole, 20]	> 33 µM	> 50 µM
O=C(CCc1nc(CCc2ccccc2)c(CCCO)s1)CSCCCc1ccccc1 [Trisubsituted thiazole, 15]	> 12.5 µM	> 50 µM
